Assays:
Rat neurons = test: Neuron autophagy assay (flux LC3 assay, conversion of photoconvertible reporter); type: cell-based; details: tested at 5, 10, 50, 200, 500, 1000 nM, overnight treatment, read-out: concentration at which active (neuronal autophagy induction)
Description: The induction of neuronal autophagy herein was measured by the conversion of photoconvertible reporter in a flux LC3 assay, as described in Tsvetkov et al., Nature Chemical Biology, 9:586-592 (2013), which is incorporated herein by reference.
mApple, kindly provided by Kurt Thorn of the Nikon microscopy core at UCSFR, was cloned into the pGW1 vector. pGW1-GFP and pGW1-Htt^exl-Q97-GFP were transfected according to normal protocols.
Cell cultures included striata, cortices, and hippocampi from rat embryos or newborn (postnatal day 0) mice were dissected, dissociated, and plated on 96-well tissue culture plates coated with poly-D-lysine and laminin. Cells were cultured for 4 days in neurobasal medium with L-glutamine and B-27 before use.
Rat neurons were transfected with plasmids using lipofectamine, treated overnight with vehicle (DMSO) or 5, 10, 50, 200, 500, and 1000 nM of exemplifying compounds and imaged everyday, once a day, for 7 days. […] Kolmogrov-Smirnov statistics test was used to calculate P values.

[1] = test system: primary neurons transfected with exon 1 of mHtt protein containing 97 poly-glutamines; test: Neuronal death assay (primary rodent neuron cellular model of HD, survival by robotic microscopy); type: cell-based; details: for protecting neurons from mHtt toxicity: in words
Description: The compounds were tested in a primary rodent neuron cellular model of HD. In this disease model, neurons from the striatum, the site of severe pathology in HD, are transfected with full-length or N-terminal fragments of wild-type Htt or mHtt. The model recapitulates cellular and molecular features seen in HD, including mHtt-dependent neurodegeneration. To use the model in drug discovery, striatal neurons are co-transfected with fluorescently tagged mHtt and marker proteins and examined longitudinally using an automated fluorescent microscopy system (U.S. Pat. No. 7,139,415, incorporated by reference in its entirety). Neurons that express mHtt are periodically imaged, and the loss of fluorescence of the marker protein corresponds to cell death. Importantly, the automated system monitors how mHtt affects neuronal survival by following single cells longitudinally, distinguishing transfected neurons from non-transfected cells. Neurodegeneration is quantified by the difference in survival time between neuronal cells expressing mHtt and neuronal cells expressing wild-type Htt; drugs that increase neuronal survival in neurons expressing mHtt are neuroprotective. Hazard functions are determined by Cox proportional hazards (CPH) analysis to create hazard ratios that are the estimated instantaneous risk of death of individual cells, independent of population size.
Exemplifying compounds were tested for protecting neurons from mHtt toxicity. For this survival assay, primary neurons were transfected with a construct expressing exon 1 of mHtt protein containing 97 poly-glutamines and a fluorescent reporter to track the neurons. Neurons were imaged for 7 days using automated fluorescent robotic microscopy and analyzed for survival. Fluphenazine (Compound N) at 100 nM was used as positive control. DMSO was used as negative control.

[2] = Table 3, dose 200 nM, mHtt neurons, imaged 7 days
[3] = Table 4, dose 50 nM, mHtt neurons, imaged 7 days
[4] = Table 5, dose 10 nM, mHtt neurons, imaged 7 days

Cc1ccc2c(c1)N(C(=O)CCN1CCN(C)CC1)CCO2 [A, 1-(6-methyl-2,3-dihydro-4H-benzo[b][1,4]oxazin-4-yl)-3-(4-methylpiperazin-1-yl)propan-1-one]
minimal effective concentration (Rat neurons): < 0.05 µM

Cc1ccc2c(c1)N(C(=O)CN1CCN(C)CC1)CCO2 [B, 1-(6-methyl-2,3-dihydro-4H-benzo[b][1,4]oxazin-4-yl)-2-(4-methylpiperazin-1-yl)ethan-1-one]
minimal effective concentration (Rat neurons): < 0.05 µM

Cc1ccc2c(c1)N(CCCN1CCN(C)CC1)CCO2 [C, 6-methyl-4-(3-(4-methylpiperazin-1-yl)propyl)-3,4-dihydro-2H-benzo[b][1,4]oxazine]
minimal effective concentration (Rat neurons): < 0.05 µM

Cc1ccc2c(c1)N(CCN1CCN(C)CC1)CCO2 [Compound D, 6-methyl-4-(2-(4-methylpiperazin-1-yl)ethyl)-3,4-dihydro-2H-benzo[b][1,4]oxazine]
minimal effective concentration (Rat neurons): < 0.05 µM
Hazard Ratio ([1]; Table 3, dose 10 nM, mHtt neurons, imaged 7 days): 0.9161
protecting neurons from mHtt toxicity [1]: active at nM concentrations

Cc1ccc2c(c1)N(C(=O)CN1CCN(c3ccccc3)CC1)CCO2 [Compound K, 1-(6-methyl-2,3-dihydro-4H-benzo[b][1,4]oxazin-4-yl)-2-(4-phenylpiperazin-1-yl)ethan-1-one]
Hazard Ratio [1, 2]: 0.9209
protecting neurons from mHtt toxicity [1]: active at nM concentrations

OCCN1CCN(CCCN2c3ccccc3Sc3ccc(C(F)(F)F)cc32)CC1 [Compound N, 2-(4-(3-(2-(trifluoromethyl)-10H-phenothiazin-10-yl)propyl)piperazin-1-yl)ethan-1-ol, reference compound]
Hazard Ratio ([1]; Table 3, dose 100 nM, positive control): 0.8553
Hazard Ratio ([1]; Table 4, dose 100 nM, positive control): 0.7018
Hazard Ratio ([1]; Table 5, dose 100 nM, positive control): 0.5273

Cc1ccc2c(c1)N(CC(=O)N1CCN(CCNS(C)(=O)=O)CC1)CCO2 [Compound S, N-[2-[4-[2-(6-methyl-2,3-dihydro-1,4-benzoxazin-4-yl)acetyl]piperazin-1-yl]ethyl]methanesulfonamide]
Hazard Ratio [1, 3]: 0.6953
protecting neurons from mHtt toxicity [1]: active at nM concentrations

Cc1ccc2c(c1)N(CC(=O)N1CCN(C)CC1)CCO2 [E, 2-(6-methyl-2,3-dihydro-4H-benzo[b][1,4]oxazin-4-yl)-1-(4-methylpiperazin-1-yl)ethan-1-one]
minimal effective concentration (Rat neurons): < 0.05 µM
Hazard Ratio ([1]; Table 3, dose 50 nM, mHtt neurons, imaged 7 days): 0.8952
protecting neurons from mHtt toxicity [1]: active at nM concentrations

Cc1ccc2c(c1)N(CCC(=O)N1CCN(C)CC1)CCO2 [F, 3-(6-methyl-2,3-dihydro-4H-benzo[b][1,4]oxazin-4-yl)-1-(4-methylpiperazin-1-yl)propan-1-one]
minimal effective concentration (Rat neurons): < 0.05 µM

Cc1ccc2c(c1)N(CCN1CCN(C)CC1)C(=O)CO2 [G, 6-methyl-4-(2-(4-methylpiperazin-1-yl)ethyl)-2H-benzo[b][1,4]oxazin-3(4H)-one]
minimal effective concentration (Rat neurons): < 0.05 µM

Cc1ccc2c(c1)N(CC(=O)N1CCN(C)CC1)C(=O)CO2 [I, 6-methyl-4-(2-(4-methylpiperazin-1-yl)-2-oxoethyl)-2H-benzo[b][1,4]oxazin-3(4H)-one]
minimal effective concentration (Rat neurons): < 0.05 µM

Cc1ccc2c(c1)N(C(=O)CC1CCN(C)CC1)CCO2 [L, 1-(6-methyl-2,3-dihydro-4H-benzo[b][1,4]oxazin-4-yl)-2-(1-methylpiperidin-4-yl)ethan-1-one]
Hazard Ratio [1, 2]: 0.9143
protecting neurons from mHtt toxicity [1]: active at nM concentrations

Cc1ccc2c(c1)N(C(=O)CN1CCN(C3CCCCC3)CC1)CCO2 [O, 2-(4-cyclohexylpiperazin-1-yl)-1-(6-methyl-2,3-dihydro-1,4-benzoxazin-4-yl)ethanone]
Hazard Ratio [1, 3]: 0.5747
protecting neurons from mHtt toxicity [1]: active at nM concentrations

Cc1ccc2c(c1)N(C(=O)CN1CCN(C(C)C)CC1)CCO2 [P, 1-(6-methyl-2,3-dihydro-1,4-benzoxazin-4-yl)-2-(4-propan-2-ylpiperazin-1-yl)ethanone]
Hazard Ratio [1, 3]: 0.7384
Hazard Ratio [1, 4]: 0.6275
protecting neurons from mHtt toxicity [1]: active at nM concentrations

Cc1ccc2c(c1)N(CC(=O)N1CCN(CCO)CC1)CCO2 [Q, 1-[4-(2-hydroxyethyl)piperazin-1-yl]-2-(6-methyl-2,3-dihydro-1,4-benzoxazin-4-yl)ethanone]
Hazard Ratio [1, 3]: 0.5709
Hazard Ratio [1, 4]: 0.558
protecting neurons from mHtt toxicity [1]: active at nM concentrations

COCCN1CCN(C(=O)CN2CCOc3ccc(C)cc32)CC1 [R, 1-[4-(2-methoxyethyl)piperazin-1-yl]-2-(6-methyl-2,3-dihydro-1,4-benzoxazin-4-yl)ethanone]
Hazard Ratio [1, 3]: 0.7345
Hazard Ratio [1, 4]: 0.7036
protecting neurons from mHtt toxicity [1]: active at nM concentrations
